Experiments:
[1] = test system: Salmonella typhimurium TA98 strain, TA100 strain; experiment: Test Example 7: FAT test (mutagenicity); set-up: key: (−) means that mutagenicity is negative; (+) is positive; settings: TA98 and TA100 strains, non-metabolism activating and metabolism activating conditions
Method: Mutagenicity of a compound of the present invention was evaluated.
[…] of freezing-stored rat typhoid bacillus (Salmonella typhimurium TA98 strain, TA100 strain) was inoculated on 10 mL of a liquid nutrient medium (2.5% Oxoid nutrient broth No. 2), and this was cultured before shaking at 37° C. for 10 hours. 9 mL of a bacterial solution of the TA98 strain was centrifuged (2000×g, 10 minutes) to remove a culturing solution. The bacteria was suspended in 9 mL of a Micro F buffer (K2HPO4: 3.5 g/L, KH2PO4: 1 g/L, (NH4)2SO4: 1 g/L, trisodium citrate dehydrate: 0.25 g/L, MgSO4*7H2O: 0.1 g/L), the suspension was added to 110 mL of an Exposure medium (Micro F buffer containing Biotin: 8 μg/mL, histidine: 0.2 μg/mL, glucose: 8 mg/mL). The TA100 strain was added to 120 mL of the Exposure medium relative to 3.16 mL of the bacterial solution to prepare a test bacterial solution. […] Since a well containing a bacterium which has obtained the proliferation ability by mutation of an amino acid (histidine) synthesizing enzyme gene turns from purple to yellow due to a pH change, the bacterium proliferation well which has turned to yellow in 48 wells per dose was counted, and was assessed by comparing with a negative control group. […]

CYP2D6 = molecular target: T1, CYP2D6 (Homo sapiens, UniProt P10635); experiment: Test Example 6: CYP inhibition test, dextromethorphan O-demethylation (CYP2D6); format: in vitro ADME; settings: pooled human hepatic microsome, 5 μmol/L dextromethorphan
T1 construct: enzyme, pooled human hepatic microsome 0.2 mg protein/mL; from tissue; host or cells: pooled human liver microsomes
T1 sequence (P10635 whole entry): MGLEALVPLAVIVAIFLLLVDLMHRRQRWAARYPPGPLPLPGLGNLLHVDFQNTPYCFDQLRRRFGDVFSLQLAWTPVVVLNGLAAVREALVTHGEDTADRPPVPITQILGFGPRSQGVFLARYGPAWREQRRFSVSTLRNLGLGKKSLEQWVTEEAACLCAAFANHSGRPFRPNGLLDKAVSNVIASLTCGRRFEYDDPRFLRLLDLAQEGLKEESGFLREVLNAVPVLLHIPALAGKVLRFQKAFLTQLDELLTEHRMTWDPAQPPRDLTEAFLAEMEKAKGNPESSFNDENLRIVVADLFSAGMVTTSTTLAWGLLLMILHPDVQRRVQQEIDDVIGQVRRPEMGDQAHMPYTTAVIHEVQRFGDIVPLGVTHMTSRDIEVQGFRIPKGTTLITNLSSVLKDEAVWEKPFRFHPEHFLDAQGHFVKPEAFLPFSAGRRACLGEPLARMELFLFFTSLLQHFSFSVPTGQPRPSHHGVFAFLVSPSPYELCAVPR
Method: (§1) Test Example 6 CYP Inhibition Test […] The reaction conditions were as follows: substrate, 0.5 μmol/L ethoxyresorufin (CYP1A2), 100 μmol/L tolbutamide (CYP2C9), 50 μmol/L S-mephenytoin (CYP2C19), 5 μmol/L dextromethorphan (CYP2D6), 1 μmol/L terfenedine (CYP3A4); reaction time, 15 minutes; reaction temperature, 37° C.; enzyme, pooled human hepatic microsome 0.2 mg protein/mL; concentration of the compound of the present invention, 1, 5, 10, 20 μmol/L (four points). Each five kinds of substrates, human hepatic microsome, and the compound of the present invention in 50 mmol/L Hepes buffer as a reaction solution were added to a 96-well plate at the composition as described above. NADPH, as a cofactor was added to initiate metabolism reactions as markers and, after the incubation at 37° C. for 15 minutes, a methanol/acetonitrile=1/1 (v/v) solution was added to stop the reaction. After the centrifugation at 3000 rpm for 15 minutes, resorufin (CYP1A2 metabolite) in the supernatant was quantified by a fluorescent multilabel counter and toltributamide hydroxide (CYP2[…] metabolite), mephenytoin 4' hydroxide (CYP2C19 metabolite), […], and terfenadine alcohol (CYP3A4 metabolite) were quantified by LC/MS/MS. Addition of only DMSO being a solvent dissolving the compound of the present invention to a reaction system was adopted as a control (100%). Remaining activity (%) was calculated at each concentration of the compound of the present invention added as the solution and IC50 was calculated by reverse presumption by a logistic model using a concentration and an inhibition rate.

[2] = Test Example 11: BA test (oral absorbability); format: in vivo; settings: plasma; Mouse, oral administration 1 mg/kg
Method: Materials and methods for experiments to evaluate oral absorbability
(1) Experimental animals: rats or mice were used. (2) Breeding condition: rats or mice were allowed free access to solid feed and sterilized tap water (3) Setting of dosage and grouping: Oral administration and intravenous administration were performed with the predetermined dosage. Grouping was set as below. (Dosage varied depending on each compound)
Oral administration 1 to 30 mg/kg (n=2 to 3)
Intravenous administration 0.5 to 10 mg/kg (n=2 to 3)
(4) Preparation of administered liquid: Oral administration was performed using a solution or a suspension. Intravenous administration was performed after solubilization. (5) Method of Administration: In oral administration, compulsory administration to the stomach was conducted using an oral sonde. […] (6) Evaluation items: Blood was chronologically collected, and then concentration of a compound of the present invention in blood plasma was measured using a LC/MS/MS. […]
(7) Statistical analysis: With regard to a shift in plasma concentration of the compound of the present invention, the area under the plasma concentration-time curve (AUC) was calculated using a nonlinear least-squares program, WinNonlin (a registered trademark). Bioavailability (BA) was calculated from the AUCs of the oral administration group and the intravenous administration group. […]

CYP2C19 = molecular target: T2, CYP2C19 (Homo sapiens, UniProt P33261); experiment: Test Example 6: CYP inhibition test, mephenytoin 4′-hydroxylation (CYP2C19); format: in vitro ADME; settings: pooled human hepatic microsome, 50 μmol/L S-mephenytoin
T2 construct: enzyme, pooled human hepatic microsome 0.2 mg protein/mL; from tissue; host or cells: pooled human liver microsomes
T2 sequence (P33261 whole entry): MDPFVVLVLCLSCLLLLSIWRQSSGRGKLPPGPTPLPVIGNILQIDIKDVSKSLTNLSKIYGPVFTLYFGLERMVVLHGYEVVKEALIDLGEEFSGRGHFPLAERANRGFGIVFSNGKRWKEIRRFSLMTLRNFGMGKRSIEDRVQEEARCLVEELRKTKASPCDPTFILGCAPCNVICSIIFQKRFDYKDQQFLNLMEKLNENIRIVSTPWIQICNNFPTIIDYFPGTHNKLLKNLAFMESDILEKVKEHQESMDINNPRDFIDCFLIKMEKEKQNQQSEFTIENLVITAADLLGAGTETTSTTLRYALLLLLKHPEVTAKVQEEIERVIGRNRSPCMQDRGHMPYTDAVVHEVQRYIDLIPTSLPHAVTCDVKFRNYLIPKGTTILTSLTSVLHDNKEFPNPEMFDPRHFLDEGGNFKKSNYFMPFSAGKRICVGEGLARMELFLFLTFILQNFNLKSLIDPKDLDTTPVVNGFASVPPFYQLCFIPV
Method: as §1

| IC50 (CYP2D6) | bioavailability [2] | IC50 (CYP2C19) | SMILES | Mutagenicity (FAT test) [1] |
| --- | --- | --- | --- | --- |
|  |  |  | Cc1nc(C)c(-c2csc(NC(=O)C3CCC(F)(F)C3)n2)s1 (stereo not shown) [Compound I-18] | (−) |
| > 20 µM | 54.6% | > 20 µM | Cc1nc(C)c(-c2csc(NC(=O)Cc3ccc(S(C)(=O)=O)cc3)n2)s1 [Compound I-17] |  |

Reference: patent US20170066759A1, “AROMATIC 5-MEMBERED HETEROCYCLIC DERIVATIVE HAVING TRPV4-INHIBITING ACTIVITY” (Shionogi & Co., Ltd., priority 2012, published 2017)
